Legend:
DNA polymerase beta = DNA polymerase beta (Mus musculus, UniProt Q8K409); experiment: ChEBML_50773
Description: Ability to inhibit mouse beta DNA polymerase

Gag-Pol polyprotein = Gag-Pol polyprotein (Woolly monkey sarcoma virus, UniProt P03359); experiment: ChEBML_196792
Description: Ability to inhibit simian sarcoma virus reverse transcriptase

Gag-Pol polyprotein, sequence (P03359 642-1310 limits assumed): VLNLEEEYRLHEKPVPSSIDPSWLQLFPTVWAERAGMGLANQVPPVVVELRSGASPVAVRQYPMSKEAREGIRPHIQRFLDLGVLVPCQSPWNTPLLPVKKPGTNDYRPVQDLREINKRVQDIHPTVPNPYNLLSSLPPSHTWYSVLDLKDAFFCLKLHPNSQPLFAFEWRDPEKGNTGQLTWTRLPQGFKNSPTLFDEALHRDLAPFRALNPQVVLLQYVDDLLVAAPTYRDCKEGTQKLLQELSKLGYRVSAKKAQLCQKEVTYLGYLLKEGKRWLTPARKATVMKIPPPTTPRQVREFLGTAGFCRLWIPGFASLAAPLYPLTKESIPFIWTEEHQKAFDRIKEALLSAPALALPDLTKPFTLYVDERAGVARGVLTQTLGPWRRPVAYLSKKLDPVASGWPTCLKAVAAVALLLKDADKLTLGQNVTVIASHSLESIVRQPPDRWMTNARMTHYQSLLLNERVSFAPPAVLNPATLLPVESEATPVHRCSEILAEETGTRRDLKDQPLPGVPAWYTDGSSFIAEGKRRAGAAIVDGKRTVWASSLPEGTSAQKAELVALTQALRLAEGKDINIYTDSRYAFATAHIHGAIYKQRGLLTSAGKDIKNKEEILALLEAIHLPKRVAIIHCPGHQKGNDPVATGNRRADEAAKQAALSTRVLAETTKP

COC1/C=C/OC2(C)Oc3c(C)c(O)c4c(O)c(c(/C=N/N5CCCC5)cc4c3C2=O)NC(=O)/C(C)=C\C=C\C(C)C(O)C(C)C(O)C(C)C(OC(C)=O)C1C (stereo not given) [2,15,17,29-tetrahydroxy-11-methoxy-3,7,12,14,16,18,22-heptamethyl-26-Methylene-pyrrolidin-1-yl-amino-6,23-dioxo-8,30-dioxa-24-azatetracyclo[23.3.1.14,7.05,28]triaconta-1(28),2,4,9,19,21,25(29),26-octaen-13-yl acetate]
IC50 (DNA polymerase beta): 240 µM

COC1/C=C/OC2(C)Oc3c(C)c(O)c4c(O)c(c(CN5CCNCC5)cc4c3C2=O)NC(=O)/C(C)=C\C=C\C(C)C(O)C(C)C(O)C(C)C(OC(C)=O)C1C (stereo not given) [26-hexahydro-1-pyrazinylmethyl-2,15,17,29-tetrahydroxy-11-methoxy-3,7,12,14,16,18,22-heptamethyl-6,23-dioxo-8,30-dioxa-24-azatetracyclo[23.3.1.14,7.05,28]triaconta-1(28),2,4,9,19,21,25(29),26-octaen-13-yl acetate]
IC50 (DNA polymerase beta): 4200 µM | IC50 (Gag-Pol polyprotein): 1450 µM

COC1/C=C/OC2(C)Oc3c(C)c(O)c4c(O)c(c(C=O)cc4c3C2=O)NC(=O)/C(C)=C\C=C\C(C)C(O)C(C)C(O)C(C)C(OC(C)=O)C1C (stereo not given) [26-formyl-2,15,17,29-tetrahydroxy-11-methoxy-3,7,12,14,16,18,22-heptamethyl-6,23-dioxo-8,30-dioxa-24-azatetracyclo[23.3.1.14,7.05,28]triaconta-1(28),2,4,9,19,21,25(29),26-octaen-13-yl acetate]
IC50 (DNA polymerase beta): 104 µM

COC1/C=C/OC2(C)Oc3c(C)c(O)c4c(O)c(c(O)cc4c3C2=O)NC(=O)/C(C)=C\C=C\C(C)C(O)C(C)C(O)C(C)C(OC(C)=O)C1C (stereo not given) [2,15,17,26,29-pentahydroxy-11-methoxy-3,7,12,14,16,18,22-heptamethyl-6,23-dioxo-8,30-dioxa-24-azatetracyclo[23.3.1.14,7.05,28]triaconta-1(28),2,4,9,19,21,25(29),26-octaen-13-yl acetate]
IC50 (DNA polymerase beta): 370 µM

CCN(CC)Cc1cc2c3c4c(C)c(O)c2c(O)c1NC(=O)/C(C)=C\C=C\C(C)C(O)C(C)C(O)C(C)C(OC(C)=O)C(C)C(OC)/C=C/OC(C)(O4)C3=O (stereo not given) [26-diethylaminomethyl-2,15,17,29-tetrahydroxy-11-methoxy-3,7,12,14,16,18,22-heptamethyl-6,23-dioxo-8,30-dioxa-24-azatetracyclo[23.3.1.14,7.05,28]triaconta-1(28),2,4,9,19,21,25(29),26-octaen-13-yl acetate]
IC50 (DNA polymerase beta): 1100 µM

COC1/C=C/OC2(C)Oc3c(C)c(O)c4c(O)c(c(/C=N/N5CCN(C)CC5)cc4c3C2=O)NC(=O)/C(C)=C\C=C\C(C)C(O)C(C)C(O)C(C)C(OC(C)=O)C1C (stereo not given) [2,15,17,29-tetrahydroxy-11-methoxy-3,7,12,14,16,18,22-heptamethyl-26-(4-methylhexahydro-1-pyrazinyliminomethyl)-6,23-dioxo-8,30-dioxa-24-azatetracyclo[23.3.1.14,7.05,28]triaconta-1(28),2,4,9,19,21,25(29),26-octaen-13-yl acetate]
IC50 (DNA polymerase beta): 150 µM

COc1cccc(CN2CCN(/N=C/c3cc4c5c6c(C)c(O)c4c(O)c3NC(=O)/C(C)=C\C=C\C(C)C(O)C(C)C(O)C(C)C(OC(C)=O)C(C)C(OC)/C=C/OC(C)(O6)C5=O)CC2)c1 (stereo not given) [2,15,17,29-tetrahydroxy-11-methoxy-3,7,12,14,16,18,22-heptamethyl-26-[4-(3-Methoxy-benzyl)-piperazin-1-yl]-methylene-amino-6,23-dioxo-8,30-dioxa-24-azatetracyclo[23.3.1.14,7.05,28]triaconta-1(28),2,4,9,19,21,25(29),26-octaen-13-yl acetate]
IC50 (DNA polymerase beta): 120 µM

COC1/C=C/OC2(C)Oc3c(C)c(O)c4c(O)c(ccc4c3C2=O)NC(=O)/C(C)=C\C=C\C(C)C(O)C(C)C(O)C(C)C(OC(C)=O)C1C (stereo not given) [2,15,17,29-tetrahydroxy-11-methoxy-3,7,12,14,16,18,22-heptamethyl-6,23-dioxo-8,30-dioxa-24-azatetracyclo[23.3.1.14,7.05,28]triaconta-1(28),2,4,9,19,21,25(29),26-octaen-13-yl acetate]
IC50 (DNA polymerase beta): 1100 µM | IC50 (Gag-Pol polyprotein): 370 µM

Reference: BindingDB's records for doi:10.1021/jm00177a009 (1980)
